Data taken from patent publication US20130296430A1, “COMPOSITIONS AND METHODS FOR TREATING AUTISM AND AUTISM SPECTRUM DISORDER” (priority 2012, published 2013).

Experiments:
children with autism [1] = assay: 12-week placebo-controlled study of NAC: Clinical Global Impression (CGI); assay type: in vivo, human
Source text: The Clinical Global Impression (CGI) rating scales are commonly used measures of symptom severity, treatment response and the efficacy of treatments in treatment studies of patients with mental disorders (Guy, W., 1976, ECDEU Assessment Manual for Psychopharmacology, Rockville, Md., U.S. Department of Health, Education, and Welfare). The Clinical Global Impression-Severity scale (CGI-S) is a 7-point scale that requires the clinician to rate the severity of the patient's illness at the time of assessment, relative to the clinician's past experience with patients who have the same diagnosis. Considering total clinical experience, a patient is assessed on severity of mental illness at the time of rating 1=normal, not at all ill; 2=borderline mentally ill; 3=mildly ill; 4=moderately ill; 5=markedly ill; 6=severely ill; or 7=extremely ill.
A 12-week, double-blind randomized, placebo-controlled study of NAC in children with autism was conducted in the Autism & Developmental Disabilities Clinic in the Division of Child & Adolescent Psychiatry at Stanford University Medical Center. The recruitment period started in March 2009 and ended in September 2010. Subjects with and without mental retardation were included. After obtaining informed consent, subjects were screened and inclusion and exclusion criteria were assessed. No changes in eligibility criteria were applied throughout the study. This investigation was approved by the institutional review board at Stanford University School of Medicine. An investigational new drug application (IND#100905) was filed with the Food and Drug Administration, and the study was registered in National Institutes of Health at ClinicalTrials.gov (identifier number NCT00627705).
(§1) After the screening phase, baseline measures were obtained from subjects continuing to meet inclusion and exclusion criteria. Subjects were then randomized to either placebo or active based on age and gender. As NAC is a nutritional supplement, the quality control is predictably variable and therefore purity is not as stringent as prescription medications. Therefore, in the present study, the stability of the compound was ascertained and the integrity of the active agent was protected by packaging each NAC doses in individual pockets. The active compound and matching placebo were provided by BioAdvantex Pharma, Inc. (Mississauga, Ontario, Canada). […] Subjects randomized to the active drug were initiated at the dose of 900 mg every day for the first 4 weeks, then 900 mg twice daily for 4 weeks and 900 mg three times daily for 4 weeks. (This dose selection was based on previously published studies for other psychiatric conditions (Grant, J. et al., Arch Gen Psychiatry, 66:468-475 (2009); Berk, M. et al., Biol Psychiatry, 64:361-368 (2008); Berk, M. et al., Bio Psychiatry, 64:468-475 (2008)) and the previous experience of our group in studies of children with cystic fibrosis). Alternatively, subjects were initiated at the dose of 900 mg per day, 1,800 mg per day, or 2,700 mg per day of NAC. Alternatively, the subjects were initiated at the dose ranging from 900 mg per day to 2,700 mg per day of NAC.
If a subject could not tolerate a specific dose, s/he would be maintained at the highest tolerated dose. Subjects were evaluated at baseline, week 4, week 8 and week 12. The Aberrant Behavioral Checklist (ABC) (Aman, M. et al., Am J Ment Defic. 89:492-502 (1985)), the Clinical Global Impressions (CGI) (Guy, W., ECDEU Assessment Manual for Psychopharmacology, Rockville, Md., U.S. Department of Health, Education, and Welfare (1976)), and the Dosage Record and Treatment Emergent Symptom Scale (DOTES) (Guy, W., 1976, ECDEU Assessment Manual for Psychopharmacology, Rockville, Md., U.S. Department of Health, Education, and Welfare) were obtained in each visit. […]

children with autism [2] = assay: 12-week placebo-controlled study of NAC: safety evaluation, adverse events (DOTES); assay type: in vivo, human
Source text: Primary behavioral outcome measures, include, for example, but are not limited to, (a) the Aberrant Behavior Checklist (ABC) irritability subscale; and (b) Dosage Record and Treatment Emergent Symptom Scale (DOTES), which provides information on the presence, frequency and severity of side effects (Guy, W., ECDEU Assessment Manual for Psychopharmacology, Rockville, Md., U.S. Department of Health, Education, and Welfare (1976)). Secondary behavioral outcome measures include, but are not limited to, (a) the Clinical Global Impression (CGI); (b) ABC-Stereotypy subscale; (c) Repetitive Behavior Scale (RBS); and (d) Social responsiveness scale (SRS).
as §1
If a subject could not tolerate a specific dose, s/he would be maintained at the highest tolerated dose. Subjects were evaluated at baseline, week 4, week 8 and week 12. The Aberrant Behavioral Checklist (ABC) (Aman, M. et al., Am J Ment Defic. 89:492-502 (1985)), the Clinical Global Impressions (CGI) (Guy, W., ECDEU Assessment Manual for Psychopharmacology, Rockville, Md., U.S. Department of Health, Education, and Welfare (1976)), and the Dosage Record and Treatment Emergent Symptom Scale (DOTES) (Guy, W., 1976, ECDEU Assessment Manual for Psychopharmacology, Rockville, Md., U.S. Department of Health, Education, and Welfare) were obtained in each visit. Additional secondary measures were obtained at baseline and at week 12 and included the social responsiveness scale (SRS) (Constantino, J. et al., J. Dev Behav Pediatr., 21:2-11 (2000); Constantino, J. et al., J Autism Dev Disord., 33:427-433 (2003)), and the repetitive behavior scale-revised (RBS-R) (Bodfish, J. et al., The Repetitive Behavior Scale: A test manual (1998)).
The following adverse events (AEs) were more frequently reported in the NAC group than the placebo group, but differences were not statistically different (all p>0.100): depressed affect (1 vs. 0), akathisia (1 vs. 0), constipation (3 vs. 2), nausea/vomiting (6 vs. 3), increased appetite (2 vs. 0), diarrhea (3 vs. 1). The following AEs were reported more in the placebo group than the NAC group: excitement/agitation (3 vs. 2), increased motor activity (3 vs. 2), nasal congestion (6 vs. 4), decreased appetite (3 vs. 2), tremor (1 vs. 0), sweating (1 vs. 0), syncope/dizziness (1 vs. 0), increased salivation (2 vs. 0). One subject in each group reported insomnia and stomachache.

[3] = standardized mean difference NAC vs placebo at Week 12
[4] = NAC group, same in placebo group

Question: `CC(=O)N[C@@H](CS)C(=O)O` [NAC, N-acetylcysteine] was tested. Which “CGI severity, Mean (SD)” value (children with autism [1]; Baseline (before treatment), NAC group n = 15) did it give?
Answer: 5.1 (0.7)

Question: And the “CGI improvement, Mean (SD)” value (children with autism [1]; Week 12, NAC n = 14)?
Answer: 2.9 (1.1)

Question: What about the “CGI severity, Mean (SD)” value (children with autism [1]; Week 12, NAC n = 14, 7-point scale) of the same molecule?
Answer: 4.5 (0.8)

Question: And the “CGI-S global severity, pattern NAC vs placebo” value (children with autism [1]; all randomized participants, p=0.170)?
Answer: no significant differences

Question: What about the “CGI-I improvement, pattern NAC vs placebo” value (children with autism [1]; all randomized participants, p=0.449) of the same molecule?
Answer: no significant differences

Question: What about the “CGI improvement, Cohen's d” value (children with autism [1]; [3]) of the same molecule?
Answer: .30

Question: What about the “CGI severity, Cohen's d” value (children with autism [1]; [3]) of the same molecule?
Answer: .47

Question: And the “side effects observed, overall” value (children with autism [2]; 12-week study, up to 900 mg three times daily)?
Answer: Minimal side effects

Question: What about the “adverse event reported: akathisia (count)” value (children with autism [2]; NAC group, placebo 0, p>0.100) of the same molecule?
Answer: 1

Question: And the “adverse event reported: depressed affect (count)” value (children with autism [2]; NAC group, placebo 0, p>0.100)?
Answer: 1

Question: And the “adverse event reported: increased appetite (count)” value (children with autism [2]; NAC group, placebo 0, p>0.100)?
Answer: 2

Question: And the “adverse event reported: sweating (count)” value (children with autism [2]; NAC group, placebo 1)?
Answer: 0

Question: What about the “adverse event reported: syncope/dizziness (count)” value (children with autism [2]; NAC group, placebo 1) of the same molecule?
Answer: 0

Question: What about the “adverse event reported: tremor (count)” value (children with autism [2]; NAC group, placebo 1) of the same molecule?
Answer: 0

Question: And the “adverse event reported: diarrhea (count)” value (children with autism [2]; NAC group, placebo 1, p>0.100)?
Answer: 3

Question: What about the “adverse event reported: increased salivation (count)” value (children with autism [2]; NAC group, placebo 2) of the same molecule?
Answer: 0

Question: What about the “adverse event reported: constipation (count)” value (children with autism [2]; NAC group, placebo 2, p>0.100) of the same molecule?
Answer: 3

Question: What about the “adverse event reported: decreased appetite (count)” value (children with autism [2]; NAC group, placebo 3) of the same molecule?
Answer: 2

Question: And the “adverse event reported: excitement/agitation (count)” value (children with autism [2]; NAC group, placebo 3)?
Answer: 2

Question: What about the “adverse event reported: increased motor activity (count)” value (children with autism [2]; NAC group, placebo 3) of the same molecule?
Answer: 2

Question: What about the “adverse event reported: nausea/vomiting (count)” value (children with autism [2]; NAC group, placebo 3, p>0.100) of the same molecule?
Answer: 6

Question: And the “adverse event reported: nasal congestion (count)” value (children with autism [2]; NAC group, placebo 6)?
Answer: 4

Question: What about the “adverse event reported: insomnia (subjects)” value (children with autism [2]; [4]) of the same molecule?
Answer: One

Question: What about the “adverse event reported: stomachache (subjects)” value (children with autism [2]; [4]) of the same molecule?
Answer: One

Question: What about the “subjects with worsening of baseline agitation and irritability requiring early termination” value (children with autism [2]; active group, later medical evaluation revealed severe constipation) of the same molecule?
Answer: one
